In patent publication US12466827B2, “1,3,4-oxadiazole derivative compounds as histone deacetylase 6 inhibitor, and the pharmaceutical composition comprising the same” (CHONG KUN DANG PHARMACEUTICAL CORP., priority 2020, dated 2025):

Experiments:
human recombinant HDAC1 = target: T1, human recombinant HDAC1 (Homo sapiens, UniProt Q13547); test: In vitro HDAC enzyme activity inhibition assay (HDAC1); type: biochemical; details: Fluor de Lys-SIRT1 substrate 10 μM, 30° C., 60 minutes, fluorescence
T1 construct: purchased Enzo Life Sciences, Inc. BML-SE456
Procedure: (§1) In order to confirm the selectivity of the compounds represented by Chemical Formula I of the present invention to HDAC6 through HDAC1 and HDAC6 enzyme activity inhibition experiments, a comparison experiment was performed using the material that has already been developed as a control group.
(§2) HDAC enzyme activity was measured using the HDAC Fluorimetric Drug Discovery Kit (Enzo Life Sciences, Inc., BML-AK511, 516). For the HDAC1 enzyme activity test, human recombinant HDAC1 (BML-SE456) was used as an enzyme source and Fluor de Lys-SIRT1 (BNL-KI177) was used as a substrate. After dispensing 5-fold diluted compounds into a 96-well plate, 0.3 μg of enzyme and 10 μM substrate were added to each well of the plate and allowed to react at 30° C. for 60 minutes. Next, Fluor de Lys Developer II (BML-KI176) was added and reacted for 30 minutes to complete the reaction, and then the fluorescence values (Ex 360, Em 460) were measured using a multi-plate reader (Flexstation 3, Molecular Device). The HDAC6 enzymes were tested using human recombinant HDAC6 (382180) from Calbiochem Inc., according to the same protocol as the HDAC1 enzyme activity test method. With respect to the final result values, respective IC50 values were calculated using GraphPad Prism 4.0 program, and results thereof were summarized in Table 4 below.

human recombinant HDAC6 = target: T2, human recombinant HDAC6 (Homo sapiens, UniProt Q9UBN7); test: In vitro HDAC enzyme activity inhibition assay (HDAC6); type: biochemical; details: for HDAC6 selectivity (fold): HDAC6 over HDAC1; for IC50: same protocol as the HDAC1 test, human recombinant HDAC6 (Calbiochem)
T2 construct: purchased Calbiochem Inc. 382180
T2 sequence (Q9UBN7 1-1215): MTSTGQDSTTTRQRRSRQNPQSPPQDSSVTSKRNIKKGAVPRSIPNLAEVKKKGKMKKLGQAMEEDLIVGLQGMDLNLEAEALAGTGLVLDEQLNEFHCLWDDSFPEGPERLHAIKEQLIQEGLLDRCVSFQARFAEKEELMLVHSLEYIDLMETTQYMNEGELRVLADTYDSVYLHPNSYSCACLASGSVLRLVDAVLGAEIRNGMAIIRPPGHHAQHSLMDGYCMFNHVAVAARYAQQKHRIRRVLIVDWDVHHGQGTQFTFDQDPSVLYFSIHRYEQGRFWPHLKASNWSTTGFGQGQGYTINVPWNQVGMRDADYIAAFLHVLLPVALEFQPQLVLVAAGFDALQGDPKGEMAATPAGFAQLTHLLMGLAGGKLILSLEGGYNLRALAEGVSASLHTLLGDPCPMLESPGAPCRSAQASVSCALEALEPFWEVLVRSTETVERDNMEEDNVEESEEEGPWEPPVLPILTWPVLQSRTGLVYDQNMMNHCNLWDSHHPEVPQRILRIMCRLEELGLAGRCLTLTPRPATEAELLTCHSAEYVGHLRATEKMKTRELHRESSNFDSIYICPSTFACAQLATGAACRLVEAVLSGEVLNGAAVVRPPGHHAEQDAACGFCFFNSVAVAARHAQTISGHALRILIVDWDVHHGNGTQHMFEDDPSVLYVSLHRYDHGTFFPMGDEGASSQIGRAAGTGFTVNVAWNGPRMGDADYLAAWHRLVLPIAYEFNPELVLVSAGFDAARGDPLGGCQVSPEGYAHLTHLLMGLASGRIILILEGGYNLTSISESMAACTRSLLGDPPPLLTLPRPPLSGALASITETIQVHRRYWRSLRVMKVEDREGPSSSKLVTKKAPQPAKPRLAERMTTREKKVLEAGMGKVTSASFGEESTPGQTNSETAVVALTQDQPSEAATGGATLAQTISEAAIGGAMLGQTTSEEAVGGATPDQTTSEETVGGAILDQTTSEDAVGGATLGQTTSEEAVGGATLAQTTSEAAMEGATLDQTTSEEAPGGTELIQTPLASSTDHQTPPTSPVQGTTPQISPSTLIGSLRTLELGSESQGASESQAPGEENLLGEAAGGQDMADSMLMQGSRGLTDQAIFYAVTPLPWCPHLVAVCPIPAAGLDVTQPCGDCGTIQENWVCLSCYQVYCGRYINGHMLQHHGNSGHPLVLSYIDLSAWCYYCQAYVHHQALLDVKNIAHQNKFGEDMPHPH
Procedure: as §1, §2

T1 sequence (Q13547 whole entry): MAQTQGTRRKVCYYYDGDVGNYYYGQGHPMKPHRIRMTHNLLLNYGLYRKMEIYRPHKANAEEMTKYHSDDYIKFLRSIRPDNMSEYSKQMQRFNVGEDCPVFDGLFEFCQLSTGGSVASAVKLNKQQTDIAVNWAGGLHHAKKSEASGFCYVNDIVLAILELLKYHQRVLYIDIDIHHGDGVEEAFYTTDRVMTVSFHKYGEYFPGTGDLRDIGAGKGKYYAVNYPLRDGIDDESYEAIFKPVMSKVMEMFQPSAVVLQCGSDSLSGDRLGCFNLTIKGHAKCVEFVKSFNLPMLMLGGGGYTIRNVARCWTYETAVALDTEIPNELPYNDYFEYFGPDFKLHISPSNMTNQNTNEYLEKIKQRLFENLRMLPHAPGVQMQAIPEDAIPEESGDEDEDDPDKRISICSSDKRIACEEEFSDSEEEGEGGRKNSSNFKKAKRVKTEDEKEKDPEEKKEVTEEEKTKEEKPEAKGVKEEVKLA

CN(C)C(=O)N1CCC(S(=O)(=O)N(Cc2cn3ccc(-c4nnc(C(F)F)o4)cc3n2)c2cccc(F)c2)CC1 [Compound 4253, 4—(N-((7-(5-(difluoromethyl)-1,3,4-oxadiazol-2-yl)imidazo[1,2-a]pyridin-2-yl)methyl)-N-(3-fluorophenyl)sulfamoyl)-N, N-dimethylpiperidine-1-carboxamide]
IC50 (human recombinant HDAC1): > 50000 nM | HDAC6 selectivity (fold) (human recombinant HDAC6): 503 fold | IC50 (human recombinant HDAC6): 99.4 nM

O=S(=O)(C1CCN(c2ccccn2)CC1)N(Cc1cn2ccc(-c3nnc(C(F)F)o3)cc2n1)c1cccc(F)c1 [Compound 4254, N-((7-(5-(difluoromethyl)-1,3,4-oxadiazol-2-yl)imidazo[1,2-a]pyridin-2-yl)methyl)-N-(3-fluorophenyl)-1-(pyridin-2-yl)piperidine-4-sulfonamide]
IC50 (human recombinant HDAC1): > 50000 nM | HDAC6 selectivity (fold) (human recombinant HDAC6): 430 fold | IC50 (human recombinant HDAC6): 116 nM

O=S(=O)(C1CCN(c2ncccn2)CC1)N(Cc1cn2ccc(-c3nnc(C(F)F)o3)cc2n1)c1cccc(F)c1 [Compound 4255, N-((7-(5-(difluoromethyl)-1,3,4-oxadiazol-2-yl)imidazo[1,2-a]pyridin-2-yl)methyl)-N-(3-fluorophenyl)-1-(pyrimidin-2-yl)piperidine-4-sulfonamide]
IC50 (human recombinant HDAC1): > 50000 nM | HDAC6 selectivity (fold) (human recombinant HDAC6): 463 fold | IC50 (human recombinant HDAC6): 108 nM

CN1CCN(S(=O)(=O)N(Cc2cn3ccc(-c4nnc(C(F)F)o4)cc3n2)c2ccccc2)CC1 [Compound 4256, N-((7-(5-(difluoromethyl)-1,3,4-oxadiazol-2-yl)imidazo[1,2-a]pyridin-2-yl)methyl)-4-methyl-N-phenylpiperazine-1-sulfonamide]
IC50 (human recombinant HDAC1): > 50000 nM | HDAC6 selectivity (fold) (human recombinant HDAC6): 630 fold | IC50 (human recombinant HDAC6): 79.4 nM

CCN1CCN(S(=O)(=O)N(Cc2cn3ccc(-c4nnc(C(F)F)o4)cc3n2)c2ccccc2)CC1 [Compound 4257, N-((7-(5-(difluoromethyl)-1,3,4-oxadiazol-2-yl)imidazo[1,2-a]pyridin-2-yl)methyl)-4-ethyl-N-phenylpiperazine-1-sulfonamide]
IC50 (human recombinant HDAC1): > 50000 nM | HDAC6 selectivity (fold) (human recombinant HDAC6): 674 fold | IC50 (human recombinant HDAC6): 74.2 nM

CC(C)N1CCN(S(=O)(=O)N(Cc2cn3ccc(-c4nnc(C(F)F)o4)cc3n2)c2ccccc2)CC1 [Compound 4258, N-((7-(5-(difluoromethyl)-1,3,4-oxadiazol-2-yl)imidazo[1,2-a]pyridin-2-yl)methyl)-4-isopropyl-N-phenylpiperazine-1-sulfonamide]
IC50 (human recombinant HDAC1): > 50000 nM | HDAC6 selectivity (fold) (human recombinant HDAC6): 500 fold | IC50 (human recombinant HDAC6): 100 nM

CC(CO)N1CCN(S(=O)(=O)N(Cc2cn3ccc(-c4nnc(C(F)F)o4)cc3n2)c2ccccc2)CC1 (stereo not drawn) [Compound 4259, N-((7-(5-(difluoromethyl)-1,3,4-oxadiazol-2-yl)imidazo[1,2-a]pyridin-2-yl)methyl)-4-(1-hydroxypropan-2-yl)-N-phenylpiperazine-1-sulfonamide]
IC50 (human recombinant HDAC1): > 50000 nM | HDAC6 selectivity (fold) (human recombinant HDAC6): 605 fold | IC50 (human recombinant HDAC6): 82.6 nM

O=S(=O)(N1CCN(C2CCC2)CC1)N(Cc1cn2ccc(-c3nnc(C(F)F)o3)cc2n1)c1ccccc1 [Compound 4260, 4-cyclobutyl-N-((7-(5-(difluoromethyl)-1,3,4-oxadiazol-2-yl)imidazo[1,2-a]pyridin-2-yl)methyl)-N-phenylpiperazine-1-sulfonamide]
IC50 (human recombinant HDAC1): > 50000 nM | HDAC6 selectivity (fold) (human recombinant HDAC6): 573 fold | IC50 (human recombinant HDAC6): 87.3 nM

O=S(=O)(N1CCN(C2COC2)CC1)N(Cc1cn2ccc(-c3nnc(C(F)F)o3)cc2n1)c1ccccc1 [Compound 4261, N-((7-(5-(difluoromethyl)-1,3,4-oxadiazol-2-yl)imidazo[1,2-a]pyridin-2-yl)methyl)-4-(oxetan-3-yl)-N-phenylpiperazine-1-sulfonamide]
IC50 (human recombinant HDAC1): > 50000 nM | HDAC6 selectivity (fold) (human recombinant HDAC6): 588 fold | IC50 (human recombinant HDAC6): 85 nM

O=S(=O)(N1CCN(C2CCCCC2)CC1)N(Cc1cn2ccc(-c3nnc(C(F)F)o3)cc2n1)c1ccccc1 [Compound 4262, 4-cyclohexyl-N-((7-(5-(difluoromethyl)-1,3,4-oxadiazol-2-yl)imidazo[1,2-a]pyridin-2-yl)methyl)-N-phenylpiperazine-1-sulfonamide]
IC50 (human recombinant HDAC1): > 50000 nM | HDAC6 selectivity (fold) (human recombinant HDAC6): 167 fold | IC50 (human recombinant HDAC6): 299 nM

O=S(=O)(N1CCN(C2CCOCC2)CC1)N(Cc1cn2ccc(-c3nnc(C(F)F)o3)cc2n1)c1ccccc1 [Compound 4263, N-((7-(5-(difluoromethyl)-1,3,4-oxadiazol-2-yl)imidazo[1,2-a]pyridin-2-yl)methyl)-N-phenyl-1-(tetrahydro-2H-pyran-4-yl)piperazine-1-sulfonamide]
IC50 (human recombinant HDAC1): > 50000 nM | HDAC6 selectivity (fold) (human recombinant HDAC6): 397 fold | IC50 (human recombinant HDAC6): 126 nM

O=S(=O)(N1CCN(C2CCC(F)(F)CC2)CC1)N(Cc1cn2ccc(-c3nnc(C(F)F)o3)cc2n1)c1ccccc1 [Compound 4264]
IC50 (human recombinant HDAC1): > 50000 nM | HDAC6 selectivity (fold) (human recombinant HDAC6): 246 fold | IC50 (human recombinant HDAC6): 203 nM

CC(=O)N1CCN(S(=O)(=O)N(Cc2cn3ccc(-c4nnc(C(F)F)o4)cc3n2)c2ccccc2)CC1 [Compound 4265, 4-acetyl-N-((7-(5-(difluoromethyl)-1,3,4-oxadiazol-2-yl)imidazo[1,2-a]pyridin-2-yl)methyl)-N-phenylpiperazine-1-sulfonamide]
IC50 (human recombinant HDAC1): > 50000 nM | HDAC6 selectivity (fold) (human recombinant HDAC6): 585 fold | IC50 (human recombinant HDAC6): 85.5 nM

CCC(=O)N1CCN(S(=O)(=O)N(Cc2cn3ccc(-c4nnc(C(F)F)o4)cc3n2)c2ccccc2)CC1 [Compound 4266, N-((7-(5-(difluoromethyl)-1,3,4-oxadiazol-2-yl)imidazo[1,2-a]pyridin-2-yl)methyl)-N-phenyl-4-propionylpiperazine-1-sulfonamide]
IC50 (human recombinant HDAC1): > 50000 nM | HDAC6 selectivity (fold) (human recombinant HDAC6): 431 fold | IC50 (human recombinant HDAC6): 116 nM

O=C(CO)N1CCN(S(=O)(=O)N(Cc2cn3ccc(-c4nnc(C(F)F)o4)cc3n2)c2ccccc2)CC1 [Compound 4267, N-((7-(5-(difluoromethyl)-1,3,4-oxadiazol-2-yl)imidazo[1,2-a]pyridin-2-yl)methyl)-4-(2-hydroxyacetyl)-N-phenylpiperazine-1-sulfonamide]
IC50 (human recombinant HDAC1): > 50000 nM | HDAC6 selectivity (fold) (human recombinant HDAC6): 524 fold | IC50 (human recombinant HDAC6): 95.5 nM

O=C(C1CCC1)N1CCN(S(=O)(=O)N(Cc2cn3ccc(-c4nnc(C(F)F)o4)cc3n2)c2ccccc2)CC1 [Compound 4268, 4-(cyclobutanecarbonyl)-N-((7-(5-(difluoromethyl)-1,3,4-oxadiazol-2-yl)imidazo[1,2-a]pyridine-2-yl)methyl)-N-phenylpiperazine-1-sulfonamide]
IC50 (human recombinant HDAC1): > 50000 nM | HDAC6 selectivity (fold) (human recombinant HDAC6): 389 fold | IC50 (human recombinant HDAC6): 129 nM

O=C(C1COC1)N1CCN(S(=O)(=O)N(Cc2cn3ccc(-c4nnc(C(F)F)o4)cc3n2)c2ccccc2)CC1 [Compound 4269, N-((7-(5-(difluoromethyl)-1,3,4-oxadiazol-2-yl)imidazo[1,2-a]pyridin-2-yl)methyl)-4-(oxetan-3-carbonyl)-N-phenylpiperazine-1-sulfonamide]
IC50 (human recombinant HDAC1): > 50000 nM | HDAC6 selectivity (fold) (human recombinant HDAC6): 259 fold | IC50 (human recombinant HDAC6): 193 nM
